Measurements as given in ChEMBL document CHEMBL5107973, “Synthesis and structure-activity relationships of pirfenidone derivatives as anti-fibrosis agents in vitro” (RSC Med Chem, 2022).
pIC50: −log10 of the molar value. Blank lines part the entries; values can stand above or below the compound they belong to.

Tests used:
[1] = test system: NIH3T3; assay: Antiproliferative activity against TGFbeta-induced mouse NIH3T3 cells assessed as cell growth inhibition incubated for 48 hrs by CCK-8 assay; type: functional, cell-based; conditions: NIH3T3, 48 h
[2] = test system: NIH3T3; assay: Antiproliferative activity against TGFbeta-induced mouse NIH3T3 cells assessed as cell growth inhibition at 1 mM incubated for 48 hrs by CCK-8 assay; type: functional; conditions: NIH3T3, 48 h
[3] = test system: NIH3T3; assay: Induction of apoptosis in TGFbeta-induced mouse NIH3T3 cells assessed as increase in apoptosis rate at 0.05 mM incubated for 48 hrs by Annexin V-FITC/PI staining based flow cytometry; type: functional
[4] = Metabolic stability in human liver microsomes assessed as half life measured upto 45 mins in presence of NADPH by LC/MS analysis; type: ADME, Microsome
[5] = Cmax in rat at 10 mg/kg,po by HPLC-UV analysis; type: ADME, organism-based; parameters: dose 10 mg/kg, route po; conditions: in vivo
[6] = test system: NIH3T3; assay: Anti-fibrogenic activity against mouse NIH3T3 cells assessed as inhibition of TGFbeta-induced Fn protein expression at 0.01 to 0.2 mM incubated for 48 hrs by western blot assay; type: functional, cell-based; conditions: dose 0.01-0.2 mM, DDE = dose-dependent effect
[7] = test system: NIH3T3; assay: Anti-fibrogenic activity against mouse NIH3T3 cells assessed as reduction in TGFbeta-induced Smad2 phosphorylation level at 0.01 to 0.2 mM incubated for 48 hrs by western blot assay; type: functional, cell-based; conditions: dose 0.01-0.2 mM, DDE = dose-dependent effect
[8] = Cmax in rat at 2 mg/kg,iv by HPLC-UV analysis; type: ADME, organism-based; parameters: dose 2 mg/kg, route iv; conditions: in vivo
[9] = Metabolic stability in human liver microsomes assessed as intrinsic clearance measured upto 45 mins in presence of NADPH by LC/MS analysis; type: ADME, Microsome; conditions: read-out: CLH
[10] = Metabolic stability in rat liver microsomes assessed as intrinsic clearance measured upto 45 mins in presence of NADPH by LC/MS analysis; type: ADME, Microsome; conditions: read-out: CLH
[11] = Half life in rat at 10 mg/kg,po by HPLC-UV analysis; type: ADME, organism-based; conditions: in vivo
[12] = AUC (0-infinity) in rat at 2 mg/kg,iv by HPLC-UV analysis; type: ADME, organism-based; parameters: time infinity, dose 2 mg/kg, route iv; conditions: in vivo
[13] = Oral bioavailability in rat at 10 mg/kg by HPLC-UV analysis; type: ADME, organism-based; conditions: in vivo
[14] = test system: NIH3T3; assay: Anti-fibrogenic activity against mouse NIH3T3 cells assessed as inhibition of TGFbeta-induced COL1 protein expression at 0.01 to 0.2 mM incubated for 48 hrs by western blot assay; type: functional, cell-based; conditions: dose 0.01-0.2 mM, DDE = dose-dependent effect
[15] = AUC (0-infinity) in rat at 10 mg/kg,po by HPLC-UV analysis; type: ADME, organism-based; parameters: time infinity, dose 10 mg/kg, route po; conditions: in vivo
[16] = Tmax in rat at 10 mg/kg,po by HPLC-UV analysis; type: ADME, organism-based; conditions: in vivo
[17] = test system: NIH3T3; assay: Anti-fibrogenic activity against mouse NIH3T3 cells assessed as inhibition of TGFbeta-induced migration rate at 0.1 to 0.4 mM incubated for 48 hrs by wound healing assay; type: functional, cell-based; conditions: dose 0.1-0.4 mM, DDE = dose-dependent effect
[18] = Half life in rat at 2 mg/kg,iv by HPLC-UV analysis; type: ADME, organism-based; conditions: in vivo
[19] = MRT (0 to t) in rat at 10 mg/kg,po by HPLC-UV analysis; type: ADME, organism-based; conditions: in vivo
[20] = Tmax in rat at 2 mg/kg,iv by HPLC-UV analysis; type: ADME, organism-based; conditions: in vivo
[21] = test system: NIH3T3; assay: Anti-fibrogenic activity against mouse NIH3T3 cells assessed as inhibition of TGFbeta-induced alpha-SMA protein expression at 0.01 to 0.2 mM incubated for 48 hrs by western blot assay; type: functional, cell-based; conditions: dose 0.01-0.2 mM, DDE = dose-dependent effect
[22] = test system: NIH3T3; assay: Anti-fibrogenic activity against mouse NIH3T3 cells assessed as reduction in TGFbeta-induced Smad3 phosphorylation level at 0.01 to 0.2 mM incubated for 48 hrs by western blot assay; type: functional, cell-based; conditions: dose 0.01-0.2 mM, DDE = dose-dependent effect
[23] = Metabolic stability in rat liver microsomes assessed as half life measured upto 45 mins in presence of NADPH by LC/MS analysis; type: ADME, Microsome
[24] = MRT (0 to t) in rat at 2 mg/kg,iv by HPLC-UV analysis; type: ADME, organism-based; conditions: in vivo
[25] = AUC (0-t) in rat at 10 mg/kg,po by HPLC-UV analysis; type: ADME, organism-based; parameters: dose 10 mg/kg, route po; conditions: in vivo
[26] = AUC (0-t) in rat at 2 mg/kg,iv by HPLC-UV analysis; type: ADME, organism-based; parameters: dose 2 mg/kg, route iv; conditions: in vivo
[27] = test system: NIH3T3; assay: Induction of apoptosis in TGFbeta-induced mouse NIH3T3 cells assessed as increase in apoptosis rate at 0.05 to 0.2 mM incubated for 48 hrs by Annexin V-FITC/PI staining based flow cytometry; type: functional, cell-based; conditions: dose 0.05-0.2 mM, DDE = dose-dependent effect
[28] = test system: NIH3T3; assay: Anti-fibrogenic activity against mouse NIH3T3 cells assessed as inhibition of TGFbeta-induced COL1 protein expression at 0.5 to 10 mM incubated for 48 hrs by western blot assay; type: functional, cell-based; conditions: dose 0.5-10 mM, DDE = dose-dependent effect
[29] = test system: NIH3T3; assay: Anti-fibrogenic activity against mouse NIH3T3 cells assessed as inhibition of TGFbeta-induced Fn protein expression at 0.5 to 10 mM incubated for 48 hrs by western blot assay; type: functional, cell-based; conditions: dose 0.5-10 mM, DDE = dose-dependent effect
[30] = test system: NIH3T3; assay: Induction of apoptosis in TGFbeta-induced mouse NIH3T3 cells assessed as increase in apoptosis rate at 10 mM incubated for 48 hrs by Annexin V-FITC/PI staining based flow cytometry; type: functional
[31] = test system: NIH3T3; assay: Anti-fibrogenic activity against mouse NIH3T3 cells assessed as inhibition of TGFbeta-induced alpha-SMA protein expression at 0.5 to 10 mM incubated for 48 hrs by western blot assay; type: functional, cell-based; conditions: dose 0.5-10 mM, DDE = dose-dependent effect

Structure (SMILES): Cc1ccccc1CC(=O)Nc1ccc(=O)n(-c2ccccc2)c1
pIC50 [1]: 3.14 | inhibition at 1000 µM [2]: 56.1%

Structure (SMILES): O=C(Cc1cccc(Cl)c1)Nc1ccc(=O)n(-c2ccccc2)c1
inhibition at 1000 µM [2]: 27.6%

Structure (SMILES): O=C(Cc1ccc(F)cc1)Nc1ccc(=O)n(-c2ccccc2)c1
pIC50 [1]: 2.81 | inhibition at 1000 µM [2]: 39%

Structure (SMILES): Cc1ccc(CC(=O)Nc2ccc(=O)n(-c3ccccc3)c2)c(C)c1
pIC50 [1]: 3.62 | inhibition at 1000 µM [2]: 68.9%

Structure (SMILES): Cc1ccc(CC(=O)Nc2ccc(=O)n(-c3ccccc3)c2)cc1
pIC50 [1]: 3.02 | inhibition at 1000 µM [2]: 52.2%

Structure (SMILES): O=C(Cc1cccc(F)c1)Nc1ccc(=O)n(-c2ccccc2)c1
inhibition at 1000 µM [2]: 21.9%

Structure (SMILES): O=C(CC1CCCCC1)Nc1ccc(=O)n(-c2ccccc2)c1
inhibition at 1000 µM [2]: 4.5%

Structure (SMILES): O=C(Cc1ccc(Br)cc1)Nc1ccc(=O)n(-c2ccccc2)c1
pIC50 [1]: 2.95 | inhibition at 1000 µM [2]: 45.7%

Structure (SMILES): O=C(Cc1ccccc1Cl)Nc1ccc(=O)n(-c2ccccc2)c1
pIC50 [1]: 2.70 | inhibition at 1000 µM [2]: 35.2%

Structure (SMILES): O=C(Cc1ccc(Cl)cc1)Nc1ccc(=O)n(-c2ccccc2)c1
pIC50 [1]: 2.87 | inhibition at 1000 µM [2]: 37.1%

Structure (SMILES): O=C(Cc1c(F)cc(F)cc1F)Nc1ccc(=O)n(-c2ccccc2)c1
inhibition at 1000 µM [2]: 28.1%

Structure (SMILES): O=C(Cc1cccc(Br)c1)Nc1ccc(=O)n(-c2ccccc2)c1
inhibition at 1000 µM [2]: 2.1%

Structure (SMILES): O=C(Nc1ccc(=O)n(-c2ccccc2)c1)c1ccccc1F
inhibition at 1000 µM [2]: 3.5%

Structure (SMILES): Cc1cccc(CC(=O)Nc2ccc(=O)n(-c3ccccc3)c2)c1
inhibition at 1000 µM [2]: 19.8%

half-life [4]: 27.2 min | Cmax [5]: 68.5 ng/mL | Cmax [8]: 712 ng/mL | CLint scaled [9]: 63.9 mL/min/kg | CLint scaled [10]: 110 mL/min/kg | half-life [11]: 166 min | AUC [12]: 701.17 ng·h/mL | F [13]: 51% | AUC [15]: 406.5 ng·h/mL | Tmax [16]: 60.7 min | half-life [18]: 41.6 min | MRT last [19]: 290 min | Tmax [20]: 4.98 min | half-life [23]: 22.5 min | MRT last [24]: 51.4 min | AUC(0-t) [25]: 332 ng·h/mL | AUC(0-t) [26]: 701 ng·h/mL
Structure (SMILES): Cc1cc(C)c(CC(=O)Nc2ccc(=O)n(-c3ccccc3)c2)c(C)c1
Activity [3]: 34.5% | Activity [6]: Dde | Activity [7]: Dde | Activity [14]: Dde | Activity [17]: Dde | pIC50 [1]: 3.85 | Activity [21]: Dde | Activity [22]: Dde | inhibition at 1000 µM [2]: 74.4% | Activity [27]: Dde

half-life [4]: 5.76 min | CLint scaled [9]: 1230 mL/min/kg | CLint scaled [10]: 1730 mL/min/kg | half-life [23]: 1.46 min
Structure (SMILES): Cc1ccc(=O)n(-c2ccccc2)c1 [PIRFENIDONE]
pIC50 [1]: 1.86 | Activity [28]: Dde | Activity [29]: Dde | Activity [30]: 31.9% | Activity [31]: Dde

Structure (SMILES): O=C(Cc1ccccc1F)Nc1ccc(=O)n(-c2ccccc2)c1
inhibition at 1000 µM [2]: 28.7%

Structure (SMILES): O=C(Cc1ccccc1C(F)(F)F)Nc1ccc(=O)n(-c2ccccc2)c1
pIC50 [1]: 2.87 | inhibition at 1000 µM [2]: 37.8%

Structure (SMILES): O=C(Cc1ccccc1Br)Nc1ccc(=O)n(-c2ccccc2)c1
pIC50 [1]: 2.96 | inhibition at 1000 µM [2]: 48.9%
